# Key:
# [1] = test system: db/db mice; experiment: Antidiabetic effects in db/db mice, Example B (2 weeks daily oral dosing); assay type: in vivo, mouse; conditions: for Glucose (% of Control) / Glucose: 2 weeks; for Glucose: nonfasting; for Free Fatty Acids ± SEM / Triglycerides ± SEM: serum, 2 weeks daily oral, dose not given in Table 17 (see Table 16)
# From the text: db/db mice have a defect in leptin signaling, leading to hyperphagia, obesity and diabetes. Moreover, unlike ob/ob mice on a C57BL/6J background, db/db mice on a C57BL/KS background undergo failure of their insulin-producing pancreatic islet cells, resulting in progression from hyperinsulinemia (associated with peripheral insulin resistance) to hypoinsulinemic diabetes.
# Male obese (db/db homozygote) C57BL/Ksola mice approximately 8 weeks of age, were obtained from Jackson Labs (Bar Harbor, Me.) and randomly assigned into groups of 5-7 animals such that the body weights (50-55 g) and serum glucose levels (≧300 mg/dl in fed state) were similar between groups; male lean (db/+heterozygote) mice served as cohort controls. A minimum of 7 days was allowed for adaptation after arrival. All animals were maintained under controlled temperature (23° C.), relative humidity (50±5%) and light (7:00-19:00), and allowed free access to standard chow (Formulab Diet 5008, Quality Lab Products, Elkridge, Md.) and water.
# Treatment cohorts were given daily oral doses of Vehicle (1% hydroxypropylmethylcellulose), Compounds BI, CE, BT, BV, […] or Fenofibrate for 2 weeks. At the end of the treatment period 100 μl of venous blood was withdrawn in a heparinized capillary tube from the retro-orbital sinus of db/db mice for serum chemistry analysis.
# [2] = test system: male ob/ob mouse model of Type II diabetes; experiment: Antidiabetic effects in ob/ob mice (serum chemistry after 2 weeks daily oral dosing); assay type: in vivo; parameters: key to Glucose ± SEM: serum glucose in mg/dl; Triglycerides ± SEM / Free Fatty Acids ± SEM: unit not given here; conditions: for Free Fatty Acids ± SEM / Triglycerides ± SEM / Glucose ± SEM: 60 mg/kg; for Glucose / Glucose (% of Control): 60 mg/kg daily oral, 2 weeks; for Glucose ± SEM: Table 15
# Description: Obese (ob/ob) mice have a defect in the protein leptin, a regulator of appetite and fuel metabolism, leading to hyperphagia, obesity and diabetes.
# Male obese (ob/ob homozygote) C57BL/6J mice, approximately 8 weeks of age, were obtained from Jackson Labs (Bar Harbor, Me.) and randomly assigned into groups of 5 animals each such that the body weights (45-50 g) and serum glucose levels (≧300 mg/dl in fed state) were similar between groups. A minimum of 7 days was allowed for adaptation after arrival. All animals were maintained under controlled temperature (23° C.), relative humidity (50±5%) and light (7:00-19:00), and allowed free access to standard chow (Formulab Diet 5020 Quality Lab Products, Elkridge, Md.) and water.
# Treatment cohorts were given daily oral doses of vehicle (1% hydroxypropyl-methylcellulose), Compounds BI, CF, CA, CB, CC, or CD for 2 weeks. At the end of the treatment period 100 μl of venous blood was withdrawn in a heparinized capillary tube from the retro-orbital sinus of ob/ob mice for serum chemistry analysis.
# [3] = test system: Human PPARγ LBD fusion protein; experiment: Transcription activation potential, GAL4 luciferase reporter in C3A cells; assay type: cell-based
# Description: Cells were seeded in 24 well plates the day prior to transfection at 5×10^4−2×10^5 cells/well, depending upon cell type. Cells were transfected using Lipofectamine 2000 reagent from Invitrogen. A total of 0.8 μg DNA/well was added to 50 μL of Optimem Reduced Serum media (serum free; Gibco). Lipofectamine 2000 was added (2.5 μL/well) to another tube containing 50 μL of Optimem media. Plasmid DNA was added at a ratio of 4:3 (reporter:activator); where appropriate, salmon sperm DNA was substituted for activator expressing plasmid. […] DNA constructs containing the mouse PPARα or PPARγ LBD fused to the GAL4 DNA binding domain were also used. The two solutions were incubated at room temperature for 5 min, and then combined. The combined solution was incubated at room temperature for approximately 30 min. Cells were washed once with PBS, and 100 μL of transfection mix added to each well. Plates were incubated at 37° C. in a 5% CO2 incubator for 4.5 hr, followed by aspiration of the transfection mix, with plates refed using EMEM complete media (supplemented with 10% FBS, 1× Glutamine). 24 hr post-transfection, plates were treated with the appropriate compounds in EMEM complete media, followed by washing once with PBS and addition of 100 μL 1× reporter lysis buffer/well (Promega) 24 hr after treatment. Plates went through one freeze/thaw cycle prior to analysis. Approximately 10 μL of lysate was added to 100 μL of firefly luciferase substrate, mixed by pipetting, and analyzed on a luminometer for 10 s using the integration function (relative luciferase units/RLU) or on a Microbeta Trilux (luciferase counts per second/LCPS). Each treatment was performed in triplicate, and in multiple, separate experiments.
# [4] = biological target: T1, Human PPARα LBD fusion protein (Homo sapiens, UniProt Q07869); experiment: as above; assay type: cell-based
# T1 construct: a.a; 167-468)
# T1 sequence (Q07869 167-468): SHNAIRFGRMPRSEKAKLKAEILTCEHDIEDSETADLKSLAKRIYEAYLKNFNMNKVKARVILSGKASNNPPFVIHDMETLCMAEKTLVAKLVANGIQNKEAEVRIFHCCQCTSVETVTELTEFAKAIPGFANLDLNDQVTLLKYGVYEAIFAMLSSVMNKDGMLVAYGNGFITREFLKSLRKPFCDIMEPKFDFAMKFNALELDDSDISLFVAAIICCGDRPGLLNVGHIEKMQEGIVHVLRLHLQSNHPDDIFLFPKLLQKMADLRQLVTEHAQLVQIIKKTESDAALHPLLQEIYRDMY
# Description: (§1) Cells were seeded in 24 well plates the day prior to transfection at 5×10^4−2×10^5 cells/well, depending upon cell type. Cells were transfected using Lipofectamine 2000 reagent from Invitrogen. A total of 0.8 μg DNA/well was added to 50 μL of Optimem Reduced Serum media (serum free; Gibco). Lipofectamine 2000 was added (2.5 μL/well) to another tube containing 50 μL of Optimem media. Plasmid DNA was added at a ratio of 4:3 (reporter:activator); where appropriate, salmon sperm DNA was substituted for activator expressing plasmid. The reporter plasmid used was pFR-Luc, which has the firefly luciferase gene under the control of a GAL4 UAS ([…]) containing promoter. The activator expressing plasmids contain yeast GAL4 DNA binding domain (dbd) fusion of either human PPARα ligand binding domain (LBD; a.a. 167-468) or human PPARγ LBD (a.a. 176-479). DNA constructs containing the mouse PPARα or PPARγ LBD fused to the GAL4 DNA binding domain were also used. The two solutions were incubated at room temperature for 5 min, and then combined. The combined solution was incubated at room temperature for approximately 30 min. Cells were washed once with PBS, and 100 μL of transfection mix added to each well. Plates were incubated at 37° C. in a 5% CO2 incubator for 4.5 hr, followed by aspiration of the transfection mix, with plates refed using EMEM complete media (supplemented with 10% FBS, 1× Glutamine). 24 hr post-transfection, plates were treated with the appropriate compounds in EMEM complete media, followed by washing once with PBS and addition of 100 μL 1× reporter lysis buffer/well (Promega) 24 hr after treatment. Plates went through one freeze/thaw cycle prior to analysis. Approximately 10 μL of lysate was added to 100 μL of firefly luciferase substrate, mixed by pipetting, and analyzed on a luminometer for 10 s using the integration function (relative luciferase units/RLU) or on a Microbeta Trilux (luciferase counts per second/LCPS). Each treatment was performed in triplicate, and in multiple, separate experiments.
# [5] = biological target: T2, Mouse PPARα LBD fusion protein (Mus musculus, UniProt P23204); experiment: as above; assay type: cell-based
# T2 sequence (P23204 239-466): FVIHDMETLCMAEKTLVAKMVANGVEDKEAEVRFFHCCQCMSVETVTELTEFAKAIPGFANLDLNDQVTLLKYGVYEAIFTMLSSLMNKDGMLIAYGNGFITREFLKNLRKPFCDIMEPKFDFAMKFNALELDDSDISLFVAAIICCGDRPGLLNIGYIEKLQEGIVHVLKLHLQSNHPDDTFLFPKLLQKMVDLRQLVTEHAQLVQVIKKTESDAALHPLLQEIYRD
# Description: as §1
compound,measurement,setting,value
"COc1cc(C(=O)CCC(=O)O)ccc1OCc1c(C)cccc1C [BT, 4-[[4-(2,6-Dimethylbenzyloxy)-3-methoxy]phenyl]-4-oxobutyric acid]",Glucose (% of Control),[1]; 107 mg/kg daily oral,99 ± 9 % of Control
same,Glucose,[1]; 107 mg/kg daily oral,684.3 ± 63.6 mg/dL
same,Free Fatty Acids ± SEM,[1],3897.7 ± 291.3 µM
same,Triglycerides ± SEM,[1],211.5 ± 21.5 mg/dL
"Cc1cccc(C)c1COc1ccccc1 [CA, (2,6-Dimethylbenzyloxy)benzene]",Free Fatty Acids ± SEM,[2],1572.2 ± 118.0
same,Triglycerides ± SEM,[2],92.6 ± 13.7
same,Glucose,[2],402.6 ± 61.0 mg/dL
same,Glucose (% of Control),[2],95 ± 14.0 % of Control
same,Glucose ± SEM,[2],402.6 ± 61.0
"COC(=O)CC(=O)c1cccc(OCc2c(C)cccc2C)c1 [CB, Methyl 3-(3-(2,6-Dimethylbenzyloxy)phenyl)-3-oxopropionate]",Free Fatty Acids ± SEM,[2],2076.2 ± 169.0
same,Triglycerides ± SEM,[2],118.8 ± 18.0
same,Glucose,[2],494.4 ± 72.3 mg/dL
same,Glucose (% of Control),[2],117.0 ± 17.0 % of Control
same,Glucose ± SEM,[2],494.4 ± 72.3
"Cc1cccc(C)c1COc1cccc(C(C=O)CC(N)=O)c1 (stereo not drawn) [CC, 3-(3-(2,6,-Dimethylbenzyloxy)phenyl)-4-oxobutyramide]",Triglycerides ± SEM,[2],91.6 ± 13.4
same,Glucose,[2],444.4 ± 89.5 mg/dL
same,Glucose (% of Control),[2],105.0 ± 21.0 % of Control
same,Glucose ± SEM,[2],444.4 ± 89.5
"Cc1cccc(C)c1COc1cccc(C(=O)CCCC(=O)O)c1 [CD, 5-(3-(2,6-Dimethylbenzyloxy)phenyl)-5-oxopentanoic acid]",Free Fatty Acids ± SEM,[2],1961.8 ± 194.2
same,Triglycerides ± SEM,[2],119.0 ± 14.2
same,Glucose,[2],505.6 ± 63.5 mg/dL
same,Glucose (% of Control),[2],119.0 ± 15.0 % of Control
same,Glucose ± SEM,[2],505.6 ± 63.5
"CC(C)OC(=O)C(C)(C)Oc1ccc(C(=O)c2ccc(Cl)cc2)cc1 [Fenofibrate, reference compound]",Glucose (% of Control),[1]; 113 mg/kg daily oral,81 ± 7 % of Control
same,Glucose,[1]; 113 mg/kg daily oral,563.2 ± 49.0 mg/dL
same,Free Fatty Acids ± SEM,[1],3318.5 ± 208.7 µM
same,Triglycerides ± SEM,[1],109.3 ± 9.1 mg/dL
"CN(CCOc1ccc(CC2SC(=O)NC2=O)cc1)c1ccccn1 (stereo not drawn) [Rosiglitazone, rosiglitazone, reference compound]",transcription activation potential (luciferase) ± standard deviation,"[3]; Table 22b line 1 μM, rosiglitazone at one-fifth the listed concentration (0.2 μM)",124 ± 33.8 LCPS
same,transcription activation potential (luciferase) ± standard deviation,"[3]; Table 22b line 3 μM, rosiglitazone at one-fifth the listed concentration",134.8 ± 47.8 LCPS
same,transcription activation potential (luciferase) ± standard deviation,"[3]; Table 22b line 10 μM, rosiglitazone at one-fifth the listed concentration",626.6 ± 227 LCPS
same,transcription activation potential (luciferase) ± standard deviation,"[3]; Table 22b line 30 μM, rosiglitazone at one-fifth the listed concentration",887.2 ± 338.2 LCPS
same,transcription activation potential (luciferase) ± standard deviation,"[3]; Table 22b line 100 μM, rosiglitazone at one-fifth the listed concentration",1034.1 ± 400.5 LCPS
"Cc1cccc(Nc2cc(Cl)nc(SCC(=O)O)n2)c1C [Wy, reference compound]",transcription activation potential (luciferase) ± standard deviation,[4]; 1 μM,181.8 ± 47.6 LCPS
same,transcription activation potential (luciferase) ± standard deviation,[4]; 3 μM,153.1 ± 2.8 LCPS
same,transcription activation potential (luciferase) ± standard deviation,[4]; 10 μM,315.4 ± 36.5 LCPS
same,transcription activation potential (luciferase) ± standard deviation,[4]; 30 μM,648.6 ± 47.5 LCPS
same,transcription activation potential (luciferase) ± standard deviation,[4]; 100 μM,412.23 ± 114 LCPS
same,transcription activation potential (luciferase) ± standard deviation,"[5]; 1 μM, Table 20a",406.73 ± 80.11 LCPS
same,transcription activation potential (luciferase) ± standard deviation,"[5]; 3 μM, Table 20a",295.8 ± 40.31 LCPS
same,transcription activation potential (luciferase) ± standard deviation,"[5]; 10 μM, Table 20a",324.37 ± 11.06 LCPS
same,transcription activation potential (luciferase) ± standard deviation,"[5]; 30 μM, Table 20a",414 ± 122.52 LCPS
same,transcription activation potential (luciferase) ± standard deviation,"[5]; 100 μM, Table 20a",325.3 ± 91.83 LCPS
same,transcription activation potential (luciferase) ± standard deviation,"[5]; 100 μM, Table 21a",55972 ± 5162 RLU
same,transcription activation potential (luciferase) ± standard deviation,"[5]; 200 μM, Table 20a",115.2 ± 21.52 LCPS
"CC(C(=O)O)c1cccc(Oc2ccccc2)c1 (stereo not drawn) [fenoprofen, reference compound]",transcription activation potential (luciferase) ± standard deviation,"[5]; 100 μM, Table 21a",4440 ± 213 RLU

# From patent US7932290B2, “Method for the treatment of metabolic disorders” (Wellstat Biologics Corporation, priority 2003, dated 2011)
